Measurements taken from patent publication US20090252814A1, “USE OF XENON FOR ORGAN PROTECTION” (priority 2005, published 2009).

What was measured:
erythropoietin (EPO) = assay: EPO RNA expression in neonatal rat brain (RT-PCR); assay type: in vivo, Sprague Dawley rats; settings: neonatal rat brains, 75% xenon 2 h, harvested 0-24 h after
Description: Neonatal rats (7 days) Sprague Dawley rats were used. All procedures were approved by the Home Office.
C=Rat hippocampal brain control stored in −80° C. 0=Rat hippocampal brain treated with xenon for 2 hrs, sacrificed immediately after and stored in −80° C. 2=Rat hippocampal brain treated with xenon for 2 hrs, sacrificed 2 hrs later and stored in −80° C. 4=Rat hippocampal brain treated with xenon for 2 hrs, sacrificed 4 hrs later and stored in −80° C. 8=Rat hippocampal brain treated with xenon for 2 hrs, sacrificed 8 hrs later and stored in −80° C. 24=Rat hippocampal brain treated with xenon for 2 hrs, sacrificed 24 hrs later and stored in −80° C. P2=Rat hippocampal brain positive control with ischaemia injury for 45 mins, harvested after 24 hrs, stored in −80° C.
Total RNA was extracted from neonatal rat brains.
Reverse transcription of the RNA in order to obtain the first-strand cDNA was carried out using techniques well known in the art. […]
The resulting PCR amplification products were electrophoresed on a 1×TAE agarose gel in 1×TAE buffer and visualised using Fluor-S MultiImager BIORAD. […] As the level of fluorescence is approximately proportional to the amount of intercalated ethidium bromide, the abundance of amplified DNA within samples can be compared; in other words, the level of expression of a gene of interest can be determined. […]

rabbit heart = settings: xenon during early reperfusion, rabbit heart (Preckel et al 2000); cited from earlier work

## [Xe] [xenon]
Erythropoietin (EPO)
  EPO expression (RNA): time-dependent increase
Rabbit heart
  infarct size after regional ischaemia: reduces infarct size
